In publication PMC6795141 (RNA, 2019):

How the values were obtained:
[1] = molecular target: T1, PaTrmD (tRNA (m^1G37) methyltransferase TrmD, PA14_15990) (Pseudomonas aeruginosa, UniProt Q02RL6); experiment: crystal structures; type: biochemical
T1 sequence (Q02RL6 5-250): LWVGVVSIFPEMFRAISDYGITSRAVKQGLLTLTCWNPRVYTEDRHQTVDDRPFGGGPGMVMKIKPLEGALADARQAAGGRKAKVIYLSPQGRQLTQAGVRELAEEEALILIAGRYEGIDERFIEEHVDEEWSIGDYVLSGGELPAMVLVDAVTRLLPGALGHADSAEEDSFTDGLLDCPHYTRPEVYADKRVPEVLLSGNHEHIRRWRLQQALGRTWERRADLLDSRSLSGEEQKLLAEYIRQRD

[2] = molecular target: T1, PaTrmD (tRNA (m^1G37) methyltransferase TrmD, PA14_15990); experiment: ITC with refolded PaTrmD; type: binding
PaTrmD (refolded) = molecular target: T2, PaTrmD (refolded) (Pseudomonas aeruginosa PA14, UniProt Q02RL6 5-250); experiment: ITC
T2 sequence: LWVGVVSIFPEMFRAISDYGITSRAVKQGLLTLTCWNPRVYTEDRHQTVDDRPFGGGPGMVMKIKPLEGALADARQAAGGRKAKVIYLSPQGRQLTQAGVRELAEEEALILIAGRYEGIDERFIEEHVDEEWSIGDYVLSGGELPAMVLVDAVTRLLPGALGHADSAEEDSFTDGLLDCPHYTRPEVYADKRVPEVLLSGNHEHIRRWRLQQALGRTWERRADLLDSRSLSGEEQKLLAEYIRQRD

Molecule: Nc1ncnc2c1ncn2[C@@H]1O[C@H](C[C@@H](N)CC[C@H](N)C(=O)O)[C@@H](O)[C@H]1O [SFG, sinefungin]
- Ki [1]: 0.41 ± 0.07 µM

Molecule: C[S+](CC[C@H](N)C(=O)[O-])C[C@H]1O[C@@H](n2cnc3c(N)ncnc32)[C@H](O)[C@@H]1O (stereo partly drawn) [SAM, S-adenosyl-L-methionine]
- Kd [2]: 14.4 ± 3.1 µM

B1: tRNALeu(GAG) (structured_RNA)
RNA: GGGGCCGAGGUGGUGGAAUUGGUAGACACGCUACCUUGAGGUGGUAGUGGCCAUAGGCUGUAGGGGUUCGAGUCCCCUCCUCGGUACCA
modifications: none (unmodified transcript)
- Kd (PaTrmD (refolded)): 13.6 ± 3 µM
